Data published in patent US9562031B1, “Phenethyldihydrobenzodioxolones and methods of use” (Sequoia Sciences, Inc., priority 2015, dated 2017).
Where a name gives a salt, the structure may show the parent alone.

Experiments:
HCT-116 cells = assay: antiproliferation assay, HCT-116; type: cell-based; details: Homo sapiens
Procedure: (§1) For the antiproliferation assay, NCI-H460 (large cell lung carcinoma) or M14 (amelanotic melanoma) cells were grown in RPMI-1640 with 10% FBS supplemented with L-glutamine and HEPES. Cells were seeded into 96-well plates at 5×10^2 to 5×10^4 cells/well and allowed to adhere overnight; the medium was then removed. A stock solution of test compound in DMSO was diluted in medium to generate a series of working solutions. Aliquots (100 μl) of the working solutions were then added to the appropriate test wells to expose cells to the final concentrations of compound in a total volume of 100 μl. Seven different concentrations were tested, with 2-5 wells per concentration. Camptothecin was used as a positive control; wells containing vehicle without compound were used as negative controls. Plates were kept for 72 h in a 37° C., 5% CO2 incubator. After incubation, viable cells were detected with the CELLTITER 96 AQueous Non-Radioactive Cell Proliferation Assay (Promega), and IC50 values were determined using GraphPad Prism 5 software.
(§2) Antiproliferation of several of the active compounds was tested against additional cell lines.

[1] = test system: NCI-H460 (large cell lung carcinoma) cells; assay: antiproliferation assay (72 h, CELLTITER 96), NCI-H460; type: cell-based, human; details: Homo sapiens, NCI-H460, Table 4; read-out: NCI-H460 IC50
Procedure, shortened: (§3)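 Human M14 melanoma and NCI-H460 lung carcinoma cells in RPMI-1640/10% FBS, seeded at 5×10^2–5×10^4 cells/well and adhered overnight, then exposed to seven compound concentrations for 72 h at 37 °C. Viable cells read by CellTiter 96 AQueous (MTS); IC50 = concentration giving 50% of maximal growth inhibition.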

UACC-62 cells = assay: antiproliferation assay, UACC-62; type: cell-based; details: Homo sapiens
Procedure: as §1, §2

PC-3 cells = assay: antiproliferation assay, PC-3; type: cell-based; details: Homo sapiens
Procedure: as §1, §2

SK-Mel-5 cells = assay: antiproliferation assay, SK-Mel-5; type: cell-based; details: Homo sapiens
Procedure: as §1, §2

LOX-IMVI cells = assay: antiproliferation assay, LOX-IMVI; type: cell-based; details: Homo sapiens
Procedure: as §1, §2

A549 cells = assay: antiproliferation assay, A549; type: cell-based; details: Homo sapiens
Procedure: as §1, §2

[2] = test system: M14 (amelanotic melanoma) cells; assay: antiproliferation assay (72 h, CELLTITER 96), M14; type: cell-based, human; details: Homo sapiens; Table 4
Procedure, shortened: as §3

SK-Mel-2 cells = assay: antiproliferation assay, SK-Mel-2; type: cell-based; details: Homo sapiens
Procedure: as §1, §2

U-87 MG cells = assay: antiproliferation assay, U-87 MG; type: cell-based; details: Homo sapiens
Procedure: as §1, §2

NCI-H460 or M14 cells = assay: in vitro antiproliferation assay (cell line not stated for the salt); type: cell-based; details: Homo sapiens, HCl salt
Procedure: as §1
As stated herein, the invention also includes compounds and their salts. The HCl salt of compound 66 was prepared, and the salt retained activity in the in vitro antiproliferation assay (IC50 5-7 μM).

Compound | IC50 (HCT-116 cells) | IC50 [1] | IC50 (UACC-62 cells) | IC50 (PC-3 cells) | IC50 (SK-Mel-5 cells) | IC50 (LOX-IMVI cells) | IC50 (A549 cells) | IC50 [2] | IC50 (SK-Mel-2 cells) | IC50 (U-87 MG cells) | IC50 (NCI-H460 or M14 cells)
C=CC[C@H]1C[C@]2([C@H](C)Cc3ccc(OC)cc3)OCOC2=CC1=O [Compound 26, (6S,7aR)-6-allyl-7a-((R)-1-(4-methoxyphenyl)propan-2-yl)-7,7a-dihydrobenzo[d][1,3]dioxol-5(6H)-one] | 22 nM | 75 nM | 96 nM | 66 nM | 34 nM | 150 nM | 110 nM | 81 nM | 110 nM | 100 nM | –
COc1cc(F)c(C[C@H](C)[C@]23C[C@H](Cc4ccncc4)C(=O)C=C2OCO3)cc1O [HCl salt of compound 66, (6S,7aR)-7a-((S)-1-(2-fluoro-5-hydroxy-4-methoxyphenyl)propan-2-yl)-6-(pyridin-4-ylmethyl)-7,7a-dihydrobenzo[d][1,3]dioxol-5(6H)-one hydrochloride] | – | – | – | – | – | – | – | – | – | – | 5000 to 7000 nM
